{"source": "patent US20090143279A1", "about": "(priority 2007, published 2009)", "key": {"[1]": {"system": "mitochondrial membrane potential", "format": "cell-based, mouse", "conditions": "for ΔΨm (composite Z-score): normalized score vs mock-treated (DMSO) wells"}, "mtOXPHOS transcripts": {"system": "mtOXPHOS transcripts", "format": "cell-based, mouse", "conditions": "for mitoOX (composite Z-score): normalized score vs mock-treated (DMSO) wells"}, "nuOXPHOS transcripts": {"system": "nuOXPHOS transcripts", "format": "cell-based, mouse", "conditions": "for nucOX (composite Z-score): normalized score vs mock-treated (DMSO) wells"}, "[2]": {"system": "cellular dehydrogenase activity", "conditions": "for MTT (composite Z-score): normalized score vs mock-treated (DMSO) wells"}, "reactive oxygen species": {"system": "reactive oxygen species", "format": "cell-based, mouse", "conditions": "for ROS (composite Z-score): normalized score vs mock-treated (DMSO) wells"}, "C2C12 myotubes": {"system": "C2C12 myotubes", "conditions": "for Viability (composite Z-score): normalized score vs mock-treated (DMSO) wells"}, "OXPHOS gene expression": {"system": "OXPHOS gene expression", "format": "cell-based, mouse", "conditions": "for GE-HTS (composite Z-score): normalized score vs mock-treated (DMSO) wells"}, "cytochrome c": {"system": "cytochrome c", "format": "cell-based, mouse", "conditions": "for cyt c (composite Z-score): normalized score vs mock-treated (DMSO) wells"}, "[3]": {"conditions": "composite Z-score vs DMSO wells, Conc 20 μM"}, "[4]": {"conditions": "Table 4, C2C12 myotubes, 48 h, composite Z-score"}, "[5]": {"conditions": "normalized composite Z-score vs mock-treated (DMSO) wells, Conc 20 μM"}, "[6]": {"conditions": "20 μM, composite Z-score vs DMSO"}, "[7]": {"conditions": "composite Z-score vs mock-treated (DMSO) wells, concentration of each compound in μM"}, "[8]": {"conditions": "composite Z-score vs DMSO, Conc 20 μM"}}, "note": "Read-outs that look alike come from different tables or passages of the source."}
{"smiles": "C[N+](C)(C)CCCCCC[N+](C)(C)C", "note": "[hexamethonium bromide]", "values": [{"measurement": "ΔΨm", "setting": "[1]; [3]", "value": "−0.602"}, {"measurement": "mitoOX", "setting": "mtOXPHOS transcripts; [3]", "value": "−0.442"}, {"measurement": "nucOX", "setting": "nuOXPHOS transcripts; [3]", "value": "−0.806"}, {"measurement": "MTT", "setting": "[2]; [3]", "value": "−1.179"}, {"measurement": "ROS", "setting": "reactive oxygen species; [3]", "value": 0.176}, {"measurement": "Viability", "setting": "C2C12 myotubes; [3]", "value": "−0.378"}, {"measurement": "GE-HTS", "setting": "OXPHOS gene expression; [3]", "value": "−0.735"}, {"measurement": "cyt c", "setting": "cytochrome c", "value": "−0.284"}, {"measurement": "cyt c", "setting": "cytochrome c; [3]", "value": 0.087}]}
{"smiles": "O=c1cc(-c2cc(O)c(O)c(O)c2)oc2cc(O)cc(O)c12", "note": "[hieracin, reference compound]", "values": [{"measurement": "ΔΨm (composite Z-score)", "setting": "[1]; Conc 20 μM", "value": "−1.902"}, {"measurement": "ΔΨm", "setting": "[1]; Table 4, C2C12 myotubes, 48 h, JC-1, composite Z-score", "value": "−1.902"}, {"measurement": "mitoOX (composite Z-score)", "setting": "mtOXPHOS transcripts; Conc 20 μM", "value": "−1.009"}, {"measurement": "nucOX (composite Z-score)", "setting": "nuOXPHOS transcripts; Conc 20 μM", "value": "−0.421"}, {"measurement": "MTT (composite Z-score)", "setting": "[2]; Conc 20 μM", "value": "−0.557"}, {"measurement": "MTT", "setting": "[2]; [4]", "value": "−0.557"}, {"measurement": "ROS (composite Z-score)", "setting": "reactive oxygen species; Conc 20 μM", "value": "−0.329"}, {"measurement": "ROS", "setting": "reactive oxygen species; [4]", "value": "−0.329"}, {"measurement": "Viability (composite Z-score)", "setting": "C2C12 myotubes; Conc 20 μM", "value": 1.425}, {"measurement": "Viability", "setting": "C2C12 myotubes; [4]", "value": 1.425}, {"measurement": "GE-HTS (composite Z-score)", "setting": "OXPHOS gene expression; Conc 20 μM", "value": "−0.648"}, {"measurement": "cyt c (composite Z-score)", "setting": "cytochrome c; Conc 20 μM", "value": 0.057}]}
{"smiles": "COc1ccc2c(c1)O[C@H]1c3ccc(OC)cc3OC[C@@H]21", "note": "[homopterocarpin]", "values": [{"measurement": "ΔΨm", "setting": "[1]; [5]", "value": "−0.306"}, {"measurement": "mitoOX", "setting": "mtOXPHOS transcripts; [5]", "value": "−1.126"}, {"measurement": "nucOX", "setting": "nuOXPHOS transcripts; [5]", "value": "−0.713"}, {"measurement": "MTT", "setting": "[2]; [5]", "value": "−0.578"}, {"measurement": "ROS", "setting": "reactive oxygen species; [5]", "value": "−0.616"}, {"measurement": "Viability", "setting": "C2C12 myotubes; [5]", "value": 0.549}, {"measurement": "GE-HTS", "setting": "OXPHOS gene expression; [5]", "value": "−0.918"}, {"measurement": "cyt c", "setting": "cytochrome c; [5]", "value": 0.575}]}
{"smiles": "C/C1=C\\CC/C(C)=C/CC(C)(C)/C=C/C1", "note": "[humulene]", "values": [{"measurement": "ΔΨm", "setting": "[1]; [5]", "value": "−0.232"}, {"measurement": "mitoOX", "setting": "mtOXPHOS transcripts; [5]", "value": 0.060}, {"measurement": "nucOX", "setting": "nuOXPHOS transcripts; [5]", "value": "−0.188"}, {"measurement": "MTT", "setting": "[2]; [5]", "value": "−1.208"}, {"measurement": "ROS", "setting": "reactive oxygen species; [5]", "value": 0.679}, {"measurement": "Viability", "setting": "C2C12 myotubes; [5]", "value": "−0.070"}, {"measurement": "GE-HTS", "setting": "OXPHOS gene expression; [5]", "value": "−0.096"}, {"measurement": "cyt c", "setting": "cytochrome c; [5]", "value": "−0.100"}]}
{"smiles": "CCCC(=O)O[C@]1(C(=O)CO)CC[C@H]2[C@@H]3CCC4=CC(=O)CC[C@]4(C)[C@H]3[C@@H](O)C[C@@]21C", "note": "[hydrocortisone butyrate]", "values": [{"measurement": "ΔΨm", "setting": "[1]; [6]", "value": "−0.808"}, {"measurement": "mitoOX", "setting": "mtOXPHOS transcripts; [6]", "value": 0.916}, {"measurement": "nucOX", "setting": "nuOXPHOS transcripts; [6]", "value": 0.514}, {"measurement": "MTT", "setting": "[2]; [6]", "value": "−0.932"}, {"measurement": "ROS", "setting": "reactive oxygen species; [6]", "value": 1.234}, {"measurement": "Viability", "setting": "C2C12 myotubes; [6]", "value": "−1.654"}, {"measurement": "GE-HTS", "setting": "OXPHOS gene expression; [6]", "value": 0.666}, {"measurement": "cyt c", "setting": "cytochrome c; [6]", "value": "−0.064"}]}
{"smiles": "C[C@@H]1CC[C@@]2(OC1)O[C@H]1C[C@H]3[C@@H]4CC[C@H]5C[C@@H](O)CC[C@]5(C)C4=CC[C@]3(C)[C@H]1[C@@H]2C", "note": "[hydroxy (3beta)isoallospirost-9 (11)-ene]", "values": [{"measurement": "ΔΨm", "setting": "[1]; [5]", "value": "−0.423"}, {"measurement": "mitoOX", "setting": "mtOXPHOS transcripts; [5]", "value": "−0.081"}, {"measurement": "nucOX", "setting": "nuOXPHOS transcripts; [5]", "value": "−0.619"}, {"measurement": "MTT", "setting": "[2]; [5]", "value": "−1.944"}, {"measurement": "ROS", "setting": "reactive oxygen species; [5]", "value": 0.244}, {"measurement": "Viability", "setting": "C2C12 myotubes; [5]", "value": 0.035}, {"measurement": "GE-HTS", "setting": "OXPHOS gene expression; [5]", "value": "−0.457"}, {"measurement": "cyt c", "setting": "cytochrome c; [5]", "value": "−0.048"}]}
{"smiles": "CN[C@H]1C[C@@H](N)[C@H](O)[C@@H](O[C@@H]2O[C@H](CO)[C@H](O)[C@@H]3OC4(O[C@H]23)O[C@H]([C@@H](N)CO)[C@H](O)[C@H](O)[C@H]4O)[C@@H]1O", "note": "(some centres unmarked) [hygromycin B]", "values": [{"measurement": "ΔΨm", "setting": "[1]; [7]", "value": "−0.752"}, {"measurement": "mitoOX", "setting": "mtOXPHOS transcripts; [7]", "value": "−0.054"}, {"measurement": "nucOX", "setting": "nuOXPHOS transcripts; [7]", "value": 0.800}, {"measurement": "MTT", "setting": "[2]; [7]", "value": "−2.041"}, {"measurement": "ROS", "setting": "reactive oxygen species; [7]", "value": 0.707}, {"measurement": "Viability", "setting": "C2C12 myotubes; [7]", "value": "−1.526"}, {"measurement": "GE-HTS", "setting": "OXPHOS gene expression; [7]", "value": 0.558}, {"measurement": "cyt c", "setting": "cytochrome c; [7]", "value": "−0.478"}]}
{"smiles": "COc1cc2c(cc1-c1coc3c4c(c(OC)cc3c1=O)OC(C)(C)C=C4)OCO2", "note": "[ichthynone, reference compound]", "values": [{"measurement": "ΔΨm (composite Z-score)", "setting": "[1]; Conc 20 μM", "value": "−0.325"}, {"measurement": "mitoOX (composite Z-score)", "setting": "mtOXPHOS transcripts; Conc 20 μM", "value": "−0.466"}, {"measurement": "nucOX (composite Z-score)", "setting": "nuOXPHOS transcripts; Conc 20 μM", "value": "−0.088"}, {"measurement": "MTT (composite Z-score)", "setting": "[2]; Conc 20 μM", "value": "−0.681"}, {"measurement": "ROS (composite Z-score)", "setting": "reactive oxygen species; Conc 20 μM", "value": 1.842}, {"measurement": "Viability (composite Z-score)", "setting": "C2C12 myotubes; Conc 20 μM", "value": 0.234}, {"measurement": "GE-HTS (composite Z-score)", "setting": "OXPHOS gene expression; Conc 20 μM", "value": "−0.217"}, {"measurement": "cyt c (composite Z-score)", "setting": "cytochrome c; Conc 20 μM", "value": 0.001}]}
{"smiles": "O=[N+]([O-])NC1=NCCN1Cc1ccc(Cl)nc1", "note": "[imidacloprid]", "values": [{"measurement": "ΔΨm", "setting": "[1]; [8]", "value": "−0.019"}, {"measurement": "mitoOX", "setting": "mtOXPHOS transcripts; [8]", "value": "−0.368"}, {"measurement": "nucOX", "setting": "nuOXPHOS transcripts; [8]", "value": "−0.214"}, {"measurement": "MTT", "setting": "[2]; [8]", "value": "−0.893"}, {"measurement": "ROS", "setting": "reactive oxygen species; [8]", "value": 0.075}, {"measurement": "Viability", "setting": "C2C12 myotubes; [8]", "value": "−0.121"}, {"measurement": "GE-HTS", "setting": "OXPHOS gene expression; [8]", "value": "−0.294"}, {"measurement": "cyt c", "setting": "cytochrome c; [8]", "value": 0.607}]}
